Assay results as given in paper PMC9098178, “SAR of Novel 3-Arylisoquinolinones: meta-Substitution on the Aryl Ring Dramatically Enhances Antiproliferative Activity through Binding to Microtubules” (Journal of Medicinal Chemistry, 2022).
Read-outs that look alike come from different tables or passages of the source.

Key:
MCF-7 = experiment: SRB antiproliferative assay, MCF-7; assay type: cell-based, human
Description: Initially, the human breast cancer cell line MCF-7 was used in a prescreen analysis of the anticancer activity of 3-arylisoquinolinones. The cells were treated with serial concentrations of compounds 2–8 for 96 h prior to the assessment of proliferation using the sulforhodamine B (SRB) assay. For each compound, the concentration required to inhibit cell growth by 50% compared to that of the untreated control cells (IC50) was determined (Table 1).
(§1) All cell lines used in the study were human-derived and purchased from ATCC (Manassas, USA). Breast adenocarcinoma MCF-7 and MDA-MB-231 cell lines were cultured in DMEM. Hepatocellular carcinoma HepG2 and SNU423 cell lines were grown in MEME combined with 1% (v/v) nonessential amino acids and RPMI supplemented with 2 mM glutamine, respectively. Lung adenocarcinoma A549 and colorectal carcinoma HCT116 cells were grown in RPMI (+2 mM glutamine). All previous media were further supplemented with 10% heat-inactivated fetal bovine serum. The immortalized, normal liver THLE-3 cells were grown in BEGM (Lonza, Cat# CC-3170) onto precoated vessels according to ATCC’s instructions. Human umbilical vein endothelial cells (HUVECs) were cultured in EGM-2 (Lonza, Cat# CC-3162). All of the cells were maintained at 37 °C and 5% CO2 in a humidified incubator.
(§2) Screening of the antiproliferative activity of 3-arylisoquinolinones was performed using the SRB assay as previously described.[56] Exponentially growing HepG2, SNU423, MDA-MB-231, MCF-7, A549, HCT116, THLE-3, and HUVECs were seeded in 96-well plates at densities of 3000, 2000, 1500, 2500, 1000, 1000, 4000, and 4000 cells/well, respectively. These densities were experimentally selected so that the DMSO-treated cells (control) were approximately 80–90% confluent at the assay’s endpoint, and their optical density (OD) values fell within the assay’s linear range. After overnight incubation, the cells were treated with a range of concentrations of the respective compounds for 96 h, 24 h followed by 72 h compound-free incubation or 24 h (for HUVECs only). After treatment, cell monolayers were fixed with 10% (w/v) trichloroacetic acid for 1 h at 4 °C, washed, and dried. Then, the cells were exposed to 0.4% (w/v) SRB dye (prepared in 1% (v/v) acetic acid; Botium, Cat# 80100) for 15 min followed by several 1% acetic acid washing and then drying. Finally, the cellular protein-bound SRB was thoroughly dissolved in 10 mM Tris base, and the OD values were read at 510 nm using a plate reader (μQuant Microplate Spectrophotometer, Biotek, U.K.) coupled with Gen5 software (BioTek, U.K.). Compound-induced changes in cell growth were inferred from changes in OD values. Cell growth was calculated using the following formula: cell growth (%) = (ODtest/ODcontrol) × 100.

HepG2 cells = experiment: Clonogenic assay; assay type: cell-based, human; settings: 14 days; for colony formation: 0.5 or 1 μM
Description: HepG2 cells were treated with varying concentrations of 2–6 added once and kept for 14 days before counting colonies and calculating surviving fraction (Figure 2).
The ability of potential anticancer agents to prevent unlimited cell division and induce reproductive cell death was assessed using clonogenic assay as previously described.[57] In brief, HepG2 cells were seeded into six-well plates at a density of 1000 single cells/well and incubated for 10–12 h to adhere. The cells were then treated with DMSO (control) or a range of concentrations of 2–6 for 14 days. Afterward, the produced colonies were washed with phosphate-buffered saline (PBS), fixed with 70% ethanol for 20 min, and stained with 0.5% (w/v) methylene blue (prepared in 70% methanol). Following washing with water and drying, colonies (≥50 cells) were manually counted. The colony-forming efficiency (CFE) of cells was calculated by dividing the number of colonies formed by the number of cells seeded for each condition. The surviving fraction was determined by dividing the CFE of the treated cells by CFE of the control cells. A survival curve was generated by plotting the log of drug concentrations versus surviving fraction.

A549 = experiment: SRB antiproliferative assay, A549; assay type: cell-based, human
Description: (§3) In light of this substantial change in activity between the meta and para compounds, a more comprehensive analysis of the antiproliferative activity was performed for the meta-/para-3-arylisoquinolinone pairs 2 and 3, 4, and 5, as well as 6. A panel of breast (MDA-MB-231), liver (HepG2, SNU423), lung (A549), and colon (HCT116) cancer cell lines were treated with the five 3-arylisoquinolinone analogs for 96 h followed by the SRB assay. The dose–response curves (including those for MCF-7) are presented in Figure S22, and their relevant IC50 values are listed in Table 1. […] The differential activity between meta- and para-3-arylisoquinolinones was reproduced in the National Cancer Institute (NCI) one-dose screen using a panel of 59 cancer cell lines (Figure S23).
as §1, §2

SNU423 = experiment: SRB antiproliferative assay, SNU423; assay type: cell-based, human
Description: as §3, §1
as §2, with “After overnight incubation, the cells were treated with a range of concentrations of the respective compounds for 96 h, 24 h followed by 72 h compound-free incubation or 24 h (for HUVECs only).” left out

THLE-3 = experiment: SRB antiproliferative assay, normal liver cell line THLE-3; assay type: cell-based, human; settings: 24 h +drug/72 h –drug treatment, read-out: mean IC50 ± SEM, THLE-3
Excerpt: In the preceding experiments, the cells were continuously exposed to the compounds prior to scoring for the antiproliferative/cytotoxic effects. […] The meta compounds were also examined for the presence of differential antiproliferative activity against cancer cells over the normal liver cell line THLE-3. […] Moreover, the sensitivity of the six cancer cell lines toward compounds 2, 4, and 6 was markedly greater than that of THLE-3 cells.
All cell lines used in the study were human-derived and purchased from ATCC (Manassas, USA). Breast adenocarcinoma MCF-7 and MDA-MB-231 cell lines were cultured in DMEM. Hepatocellular carcinoma HepG2 and SNU423 cell lines were grown in MEME combined with 1% (v/v) nonessential amino acids and RPMI supplemented with 2 mM glutamine, respectively. Lung adenocarcinoma A549 and colorectal carcinoma HCT116 cells were grown in RPMI (+2 mM glutamine). […]
Screening of the antiproliferative activity of 3-arylisoquinolinones was performed using the SRB assay as previously described.[56] […] Finally, the cellular protein-bound SRB was thoroughly dissolved in 10 mM Tris base, and the OD values were read at 510 nm using a plate reader (μQuant Microplate Spectrophotometer, Biotek, U.K.) coupled with Gen5 software (BioTek, U.K.). […] Cell growth was calculated using the following formula: cell growth (%) = (ODtest/ODcontrol) × 100.

MDA-MB-231 = experiment: SRB antiproliferative assay, MDA-MB-231; assay type: cell-based, human
Description: as §3, §1, §2

HCT116 = experiment: SRB antiproliferative assay, HCT116; assay type: cell-based, human
Description: as §3, §1, §2

HepG2 = experiment: SRB antiproliferative assay, HepG2; assay type: cell-based, human
Description: as §3, §1, §2

[1] = tested on: panel of 59 cancer cell lines; experiment: NCI one-dose screen; assay type: cell-based; settings: 10 µM, 48 h, SRB
Description: as §3
Figure S23. NCI One-Dose Mean graphs for 3-arylisoquinolinones 4, 5 […]
In NCI one-dose screen, the 59 cell lines (classified into 9 groups) were exposed to 4, 5 and 7 at a single dose of 10 µM for 48 h followed by SRB assay. The one-dose data were reported as a mean graph of the growth percentage of treated cells, as relative to the cell number of both the no-drug control and the zero time (before adding the test agent). Values between 0 and 100 indicate growth inhibition, whereas values less than 0 indicate lethality. For instance, a value of 40 means 60% growth inhibition; 0, no growth throughout the experiment; -40, 40% lethality; and - 100, all cells are dead.1
A) One-dose mean graph for 3-arylisoquinolinone 4 (NSC number 795055)

[2] = parameters: method as in PMID 21127197; settings: after compound washout; cited from earlier work
purified bovine tubulin = experiment: Cell-free tubulin polymerization assay; assay type: biochemical; settings: 10 μM, compared to DMSO control
Excerpt: Experimentally, the direct interaction of 4 with tubulin was investigated in a cell-free system using a tubulin polymerization assay. […] In control samples, α- and β-tubulin subunits were able to heterodimerize and assemble into microtubules in a time-dependent manner as indicated by increasing absorbance values over time. […] This indicates the incidence of fast polymerization associated with the formation of a denser microtubule mass. […] It is worth mentioning that microtubule dynamics can be potently altered by microtubule-stabilizing or -destabilizing compounds at doses 10- to 100-fold lower than those required for increasing or decreasing the microtubule polymer mass.[31]
The cell-free tubulin polymerization experiment was performed using the Tubulin Polymerization Assay Kit according to the manufacturer’s instructions (Millipore, Cat# 17-10194). The light absorbed by microtubules, which were formed upon tubulin polymerization, is directly proportional to the polymer mass. […] Immediately, the plate was placed in a 37 °C-prewarmed plate reader (BMG LABTECH FLUOstar Omega, Germany) and the absorbance was measured at 1 min intervals for 60 min at a wavelength of 350 nm. The delta absorbance (ΔA) was calculated by subtracting the absorbance values of zero time from those of the subsequent time points and then plotted versus time.

[3] = Homo sapiens, MCF7, 96 h treatment, mean ± SEM, read-out: IC50 MCF-7 (prescreen)
[4] = 24 h +drug/72 h –drug treatment, read-out: mean IC50 ± SEM, MCF-7
[5] = 96 h treatment, mean ± SEM, read-out: IC50 MCF-7 (prescreen)
[6] = 24 h +drug/72 h –drug treatment, read-out: mean IC50 ± SEM, A549
[7] = 96 h treatment, mean ± SEM, read-out: IC50 A549
[8] = 24 h +drug/72 h –drug treatment, read-out: mean IC50 ± SEM, SNU423
[9] = 96 h treatment, mean ± SEM, read-out: IC50 SNU423
[10] = 24 h +drug/72 h –drug treatment, read-out: mean IC50 ± SEM, MDA-MB-231
[11] = 96 h treatment, mean ± SEM, read-out: IC50 MDA-MB-231
[12] = 24 h +drug/72 h –drug treatment, read-out: mean IC50 ± SEM, HCT116
[13] = 96 h treatment, mean ± SEM, read-out: IC50 HCT116
[14] = 24 h +drug/72 h –drug treatment, read-out: mean IC50 ± SEM, HepG2
[15] = 96 h treatment, mean ± SEM, read-out: IC50 HepG2

Compound: O=c1[nH]c(-c2ccc(F)cc2)cc2ccc(F)cc12 [compound 8]
- melting point: 294 to 296 °C
- IC50 (MCF-7; [3]): > 50000 nM

Compound: COc1cccc(-c2cc3cc(F)ccc3c(=O)[nH]2)c1 [compound 2, 6-Fluoro-3-(3-methoxyphenyl)isoquinolin-1(2H)-one]
- IC50 (MCF-7; [4]): 1430 ± 300 nM
- IC50 (MCF-7; [5]): 750 ± 130 nM
- colony formation (HepG2 cells): No colonies were apparent
- IC50 (A549; [6]): 830 ± 170 nM
- IC50 (A549; [7]): 370 ± 10 nM
- IC50 (SNU423; [8]): 580 ± 40 nM
- IC50 (SNU423; [9]): 410 ± 30 nM
- IC50 (THLE-3): > 25000 nM
- IC50 (MDA-MB-231; [10]): 190 ± 40 nM
- IC50 (MDA-MB-231; [11]): 170 ± 10 nM
- IC50 (HCT116; [12]): 200 ± 10 nM
- IC50 (HCT116; [13]): 220 ± 20 nM
- IC50 (HepG2; [14]): 2330 ± 220 nM
- IC50 (HepG2; [15]): 3120 ± 340 nM

Compound: 7-Fluoro-3-(4-methoxyphenyl)isoquinolin-1(2H)-one [compound 7]
- IC50 (MCF-7; [5]): > 50000 nM
- inhibition of growth in NCI one-dose screen [1]: less active

Compound: COc1ccc(-c2cc3cc(F)ccc3c(=O)[nH]2)cc1 [compound 3, 6-Fluoro-3-(4-methoxyphenyl)isoquinolin-1(2H)-one]
- IC50 (MCF-7; [3]): > 50000 nM
- surviving fraction (HepG2 cells; concentrations as high as 20 μM): 0.5
- IC50 (A549; Homo sapiens, A549, 96 h treatment, mean ± SEM, read-out: IC50 A549): > 50000 nM
- IC50 (SNU423; Homo sapiens, SNU-423, 96 h treatment, mean ± SEM, read-out: IC50 SNU423): > 50000 nM
- IC50 (MDA-MB-231; Homo sapiens, MDA-MB-231, 96 h treatment, mean ± SEM, read-out: IC50 MDA-MB-231): > 50000 nM
- IC50 (HCT116; Homo sapiens, HCT-116, 96 h treatment, mean ± SEM, read-out: IC50 HCT116): > 50000 nM
- IC50 (HepG2; Homo sapiens, HepG2, 96 h treatment, mean ± SEM, read-out: IC50 HepG2): > 50000 nM

Compound: CC[C@]1(O)C[C@H]2CN(CCc3c([nH]c4ccccc34)[C@@](C(=O)OC)(c3cc4c(cc3OC)N(C=O)[C@H]3[C@@](O)(C(=O)OC)[C@H](OC(C)=O)[C@]5(CC)C=CCN6CC[C@]43[C@@H]65)C2)C1 [vincristine]
- reversibility of mitotic blockade [2]: irreversible

Compound: COc1cccc(-c2cc3ccc(F)cc3c(=O)[nH]2)c1 [compound 6]
- IC50 (MCF-7; [4]): 1600 ± 400 nM
- IC50 (MCF-7; [5]): 680 ± 130 nM
- colony formation (HepG2 cells): No colonies were apparent
- IC50 (A549; [6]): 470 ± 30 nM
- IC50 (A549; [7]): 380 ± 20 nM
- IC50 (SNU423; [8]): 680 ± 90 nM
- IC50 (SNU423; [9]): 600 ± 60 nM
- IC50 (THLE-3): > 25000 nM
- IC50 (MDA-MB-231; [10]): 220 ± 20 nM
- IC50 (MDA-MB-231; [11]): 210 ± 50 nM
- IC50 (HCT116; [12]): 210 ± 10 nM
- IC50 (HCT116; [13]): 190 ± 10 nM
- IC50 (HepG2; [14]): 1400 ± 60 nM
- IC50 (HepG2; [15]): 3030 ± 610 nM

Compound: CN[C@H]1CCc2cc(OC)c(OC)c(OC)c2-c2ccc(OC)c(=O)cc21 [colcemid]
- reversibility of mitotic blockade [2]: highly reversible

Compound: COc1cc2c(c(OC)c1OC)-c1ccc(OC)c(=O)cc1[C@@H](NC(C)=O)CC2 [colchicine]
- reversibility of mitotic blockade [2]: irreversible

Compound: COC(=O)Nc1nc2cc(C(=O)c3cccs3)ccc2[nH]1 [nocodazole]
- reversibility of mitotic blockade [2]: highly reversible

Compound: CC(=O)O[C@H]1C(=O)[C@@]2(C)[C@H]([C@H](OC(=O)c3ccccc3)[C@]3(O)C[C@H](OC(=O)[C@H](O)[C@@H](NC(=O)c4ccccc4)c4ccccc4)C(C)=C1C3(C)C)[C@]1(OC(C)=O)CO[C@@H]1C[C@@H]2O [paclitaxel, reference compound]
- effect on tubulin polymerization (polymerizing control) (purified bovine tubulin): higher absorbance values briefly after the onset of the polymerization process
